According to article PMC10205807, “Cross-species comparison in nonclinical pharmacokinetics of lenvatinib by a simple HPLC with ultraviolet detection” (Scientific Reports, 2023):

Assays:
[1] = PK study in rats (intravenous and oral); type: in vivo; conditions: for Tmax: median (range)
Method: Sprague–Dawley male rats were purchased from Charles River Japan, Inc., and were used for the PK study after 8 days of an acclimatization period. Rats were 8 weeks old when lenvatinib was dosed and the body weight range was 0.28–0.31 (kg). Rats were fasted a day before the PK study and feeding was resumed 4 h postdose. Dosing solution of lenvatinib used in the rat PK study was the same as that in the mice PK study, and the dose levels were 3 mg/kg for the intravenous administration via femoral vein, and 3, 10, and 30 mg/kg for the oral administration by gastric gavage (n = 4/dose). Approximately 0.25 mL of blood samples were obtained from the jugular vein using heparinized syringes at predose, and at 5, 15 and 30 min, and 1, 2, 4, 6, 8, 12 and 24 h postdose. Plasma sample preparation and sample storage were the same as those in the mice PK study.
PK parameters of lenvatinib were estimated by model independent analysis using a WinNonlin program (Version 4.1, Pharsight Corporation, Mountain View, CA). The time to reach the maximum plasma concentration (Tmax) and the maximum plasma concentration (Cmax) values were obtained directly from the plasma concentration data. Terminal half-life (T1/2) was calculated by ln2/ke, where ke is the slope of the regression line that fits the portion of the terminal phase (at least three time points) in the log-linear concentration–time curve. AUC0–t and AUMC0–t, the area under the concentration–time curves and the area under the first moment curve, from time = zero to time = t, respectively, were calculated using the lenvatinib concentrations in plasma by the linear/log trapezoidal method. AUC0–inf was calculated by AUC0–t + Ct/ke, and AUMC0–inf was AUMC0–t + Ct × t/ke + Ct/(ke)^2, where Ct is the last measurable concentration at time = t. The plasma concentration at time zero for the intravenous dose was extrapolated, while zero was used for the oral doses. Mean residence time (MRT), total plasma clearance (CLtot) and the volume of distribution at steady state (Vdss) were calculated by AUMC0–inf/AUC0–inf, Dose/AUC0–inf and CLtot × MRT, respectively. Oral bioavailability (F) was estimated by comparing dose-normalized AUC0–inf after oral (AUC0–inf.po) and intravenous (AUC0–inf.iv) administration as follows: F (%) = (AUC0–inf.po/AUC0–inf.iv) × 100.

[2] = Stability of lenvatinib in mice plasma and processed samples; type: physicochemical; conditions: for Frozen stability, mean percentage bias from the theoretical values: below − 15 °C, 4 weeks
Method: (§1) Calibration samples and QC samples for the reproducibility assessment were prepared by spiking 0.05 mL of the working standard solutions to blank plasma (0.05 mL), and QC samples for the stability assessment were prepared by fortifying 0.05 mL of the solution to 1.5 mL of bank plasma. Lenvatinib concentrations in plasma were 0.005, 0.01, 0.03, 0.1, 0.3, 1, 3, 10, 30, and 100 μg/mL for the calibration samples, and were 0.005, 0.01, 1, and 100 μg/mL for the QC samples for reproducibility assessment. Lenvatinib concentrations of QC samples for the stability assessment were 0.01, 1, and 80 μg/mL.
(§2) The developed method for the determination of lenvatinib concentrations in plasma was validated and the following validation parameters including linearity, selectivity, intra- and inter-batch reproducibility, extraction recovery, and stability were evaluated in accordance with the bioanalytical guidelines by United States Food and Drug Administration (US-FDA)[7]. The peak height ratios of lenvatinib to the IS of calibration samples were plotted against the corresponding nominal concentrations of lenvatinib. The calibration curve was prepared by the least square method with 1/(concentration)^2 as the weighting factor. In the linearity assessment, accuracy of each calibration sample was determined to ensure that relative error (RE) at each concentration was within ± 15% (within ± 20% at the LLOQ). […] Intra-batch accuracy and precision were evaluated using QC samples at the four concentrations, LLOQ, low QC (LQC), mid QC (MQC), and ULOQ. […] Inter-batch accuracy and precision were evaluated by testing a single sample at each concentration across five batches (n = 5 in total). […] Extraction recoveries of lenvatinib and the IS from plasma samples of the four species were evaluated. The recoveries of lenvatinib at the low, mid, and high QC levels (triplicates per concentration), and that of the IS (0.5 μg/mL) were determined. […] Stability of lenvatinib in plasma and processed samples was assessed at the low and high QC levels. Lenvatinib concentrations in samples after storage were compared to the theoretical concentrations and RE values were calculated. […] Freeze–thaw stability in plasma was evaluated up to three freeze–thaw cycles and frozen stability in plasma was evaluated at − 15 °C or below for 4 weeks (mice, rats, and dogs) or 6 weeks (monkeys). Stability in processed samples was assessed at 4 °C for 7 days. Stability of lenvatinib in the standard solutions was evaluated for the stock (100 μg/mL) and the working solution (5 ng/mL). The stability of the IS solution (0.5 μg/mL) was also assessed. […]

[3] = Stability of lenvatinib in rat plasma and processed samples; type: physicochemical, rats; conditions: for Processed sample stability, mean percentage bias from the theoretical values: processed rat plasma samples, 4 °C, 7 days
Method: as §1, §2

[4] = male, Sprague-Dawley, rat, plasma, intravenous 3 mg/kg
[5] = male, Sprague-Dawley, rat, plasma, oral 3 mg/kg
[6] = male, Sprague-Dawley, rat, plasma, oral 10 mg/kg
[7] = male, Sprague-Dawley, rat, plasma, oral 30 mg/kg

- CLint (hepatic intrinsic clearance) ([1]; estimated from oral PK, Fa and Fg assumed unity, BW 0.2 kg): 1440 mL/h
- AUC(0-inf) [1, 4]: 30100 ± 1330 ng·h/mL
- MRT [1, 4]: 3.93 ± 0.19 h
- C0 ([1]; male, Sprague-Dawley, rat, plasma, intravenous 3 mg/kg, extrapolated): 16000 ± 416 ng/mL
- clearance ([1]; male, Sprague-Dawley, rat, plasma, intravenous 3 mg/kg, read-out: CLtot (converted)): 1.67 mL/min/kg
- Vd ([1]; male, Sprague-Dawley, rat, plasma, intravenous 3 mg/kg, read-out: Vdss): 0.392 ± 0.0099 L/kg
- half-life ([1]; male, Sprague-Dawley, rat, plasma, iv, 3 mg/kg, intravenous 3 mg/kg): 3.65 ± 0.09 h
- AUC(0-inf) [1, 5]: 20700 ± 3120 ng·h/mL
- Cmax [1, 5]: 6170 ± 1370 ng/mL
- MRT [1, 5]: 4.46 ± 0.16 h
- bioavailability ([1]; male, Sprague-Dawley, rat, plasma, oral 3 mg/kg vs intravenous 3 mg/kg, read-out: F (oral bioavailability)): 68.7%
- Tmax [1, 5]: 0.5 h
- AUC(0-inf) [1, 6]: 78300 ± 6580 ng·h/mL
- Cmax [1, 6]: 16600 ± 1240 ng/mL
- MRT [1, 6]: 6.31 ± 0.53 h
- Tmax [1, 6]: 0.5 h
- AUC(0-inf) [1, 7]: 146000 ± 18500 ng·h/mL
- Cmax [1, 7]: 23200 ± 4770 ng/mL
- MRT [1, 7]: 6.86 ± 1.02 h
- Tmax [1, 7]: 1 h
- half-life ([1]; male, Sprague-Dawley, rat, plasma, po, 3 mg/kg, oral 3 mg/kg): 3.61 ± 0.21 h
- half-life ([1]; male, Sprague-Dawley, rat, plasma, po, 10 mg/kg, oral 10 mg/kg): 5.27 ± 0.33 h
- half-life ([1]; male, Sprague-Dawley, rat, plasma, po, 30 mg/kg, across 3, 10, and 30 mg/kg): 3.61 to 5.27 h
- half-life ([1]; male, Sprague-Dawley, rat, plasma, po, 30 mg/kg, oral 30 mg/kg): 4.95 ± 0.77 h
- Freeze/thaw stability, mean percentage bias from the theoretical values ([2]; mice plasma, 3 cycles, HQC 80 μg/mL): 0.8%
- Frozen stability, mean percentage bias from the theoretical values ([2]; mice plasma, LQC 0.01 μg/mL): 0.0%
- Frozen stability, mean percentage bias from the theoretical values ([2]; mice plasma, MQC 1 μg/mL): 1.0%
- Processed sample stability, mean percentage bias from the theoretical values ([2]; processed mice plasma samples, 4 °C, 7 days, HQC 80 μg/mL): 0.3%
- Processed sample stability, mean percentage bias from the theoretical values ([3]; HQC 80 μg/mL): 0.3%
- Processed sample stability, mean percentage bias from the theoretical values ([3]; MQC 1 μg/mL): 0.2%
- Freeze/thaw stability, mean percentage bias from the theoretical values ([3]; rat plasma, 3 cycles, MQC 1 μg/mL): 3.6%
- Frozen stability, mean percentage bias from the theoretical values ([3]; rat plasma, below − 15 °C, 4 weeks, LQC 0.01 μg/mL): 1.0%
SMILES: COc1cc2nccc(Oc3ccc(NC(=O)NC4CC4)c(Cl)c3)c2cc1C(N)=O [lenvatinib, Lenvatinib]
